Source: patent publication EP0386243A1, “PLATINUM (II) COMPLEXES” (SAGAMI CHEMICAL RESEARCH CENTER, priority 1987, dated 1989)
Where two headings read alike, the source gives them in different places.

Assays:
[1] = system: Mouse lymphatic leukemia tumor cells, P-388; assay: Growth suppressing effect on mouse lymphatic leukemia tumor cells P-388 (48 h culture, Coulter counter cell count); format: cell-based; conditions: P-388 cells 5 x 10^4 cells/ml, 37°C, no more than 0.5% DMSO
Method: The number of suspended cells was counted with a Coulter counter and ICso values were determined from dose response curves that were constructed for the respective compounds on the basis of percent growth inhibition as compared to the absence of the compounds.

[2] = Toxicity: S-GPT (serum transaminase) and BUN (blood urea nitrogen) levels; format: in vivo

Compound | IC50 [1] [µg/mL] | IC50 ([1]; read-out: IC50) [nM] | S-GPT (serum transaminase) ([2]; indicator of hepatotoxicity) | BUN (blood urea nitrogen) ([2]; indicator of nephrotoxicity)
CC(C(=O)C(=O)[O-])c1ccc(C(=O)[O-])cc1.CC(C(=O)C(=O)[O-])c1ccc(C(=O)[O-])cc1.C[NH2+]C.C[NH2+]C.NC1CCCCC1N.[Pt+2] (stereo not drawn) [Compound No. 33, bis{β-methyl(p-carboxyphenylpyruvato)}(trans-d,ℓ-1,2-diaminocyclohexane)platinum (II) bis(dimethylammonium) salt] | 0.024 | 28 | – | –
bis(β-methylphenylpyruvato)ethylenediamine platinum (II) [Compound No. 17] | – | > 10000 | – | –
bis{β-methyl(p-isobutylphenylpyruvato)}(trans-Q-1,2-diaminocyclohexane)platinum (II) [Compound No. 14] | – | – | did not cause any appreciable increase | did not cause any appreciable increase
